Test results taken from PubChem BioAssay (NCI).
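Five compound concentrations were applied to cells in 96-well plates for 48 hours; endpoints were derived by simple linear interpolation of the resulting dose-response curve. TGI: total growth inhibition.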

Key:
Test in all cases: growth of human tumour cells (NCI), 48 h
786-0 renal = test system: 786-0 renal
A498 renal = test system: A498 renal
A549 NSCLC = test system: A549 NSCLC
ACHN renal = test system: ACHN renal
BT-549 breast = test system: BT-549 breast
CAKI-1 renal = test system: CAKI-1 renal
CCRF-CEM leukemia = test system: CCRF-CEM leukemia
COLO 205 colon = test system: COLO 205 colon
DU-145 prostate = test system: DU-145 prostate
EKVX NSCLC = test system: EKVX NSCLC
HCC-2998 colon = test system: HCC-2998 colon
HCT-116 colon = test system: HCT-116 colon
HCT-15 colon = test system: HCT-15 colon
HOP-62 NSCLC = test system: HOP-62 NSCLC
HOP-92 NSCLC = test system: HOP-92 NSCLC
HS 578T breast = test system: HS 578T breast
IGROV1 ovarian = test system: IGROV1 ovarian
KM12 colon = test system: KM12 colon
LOX IMVI melanoma = test system: LOX IMVI melanoma
M14 melanoma = test system: M14 melanoma
MALME-3M melanoma = test system: MALME-3M melanoma
MCF7 breast = test system: MCF7 breast
MDA-MB-231 breast = test system: MDA-MB-231 breast
MDA-MB-435 = test system: MDA-MB-435
MDA-N = test system: MDA-N
MOLT-4 leukemia = test system: MOLT-4 leukemia
NCI-H226 lung = test system: NCI-H226 lung
NCI-H23 lung = test system: NCI-H23 lung
NCI-H522 lung = test system: NCI-H522 lung
NCI/ADR-RES ovarian = test system: NCI/ADR-RES ovarian
OVCAR-3 ovarian = test system: OVCAR-3 ovarian
OVCAR-4 ovarian = test system: OVCAR-4 ovarian
OVCAR-5 ovarian = test system: OVCAR-5 ovarian
OVCAR-8 ovarian = test system: OVCAR-8 ovarian
PC-3 prostate = test system: PC-3 prostate
RPMI-8226 leukemia = test system: RPMI-8226 leukemia
RXF 393 renal = test system: RXF 393 renal
SF-268 CNS = test system: SF-268 CNS
SF-295 CNS = test system: SF-295 CNS
SF-539 CNS = test system: SF-539 CNS
SK-MEL-2 melanoma = test system: SK-MEL-2 melanoma
SK-MEL-28 melanoma = test system: SK-MEL-28 melanoma
SK-MEL-5 melanoma = test system: SK-MEL-5 melanoma
SK-OV-3 ovarian = test system: SK-OV-3 ovarian
SNB-19 CNS = test system: SNB-19 CNS
SNB-75 CNS = test system: SNB-75 CNS
SR leukemia = test system: SR leukemia
SW-620 colon = test system: SW-620 colon
T-47D breast = test system: T-47D breast
TK-10 renal = test system: TK-10 renal
U251 CNS = test system: U251 CNS
UACC-257 melanoma = test system: UACC-257 melanoma
UACC-62 melanoma = test system: UACC-62 melanoma
UO-31 renal = test system: UO-31 renal
HL-60(TB) leukemia = test system: HL-60(TB) leukemia
HT29 colon = test system: HT29 colon
K-562 leukemia = test system: K-562 leukemia
SN12C renal = test system: SN12C renal

Measured: TGI

N=c1c2sc3nc4ccccc4n3c2ncn1Cc1ccccc1
not listed: HL-60(TB) leukemia | HT29 colon | K-562 leukemia | SN12C renal
> 100 µM: all other assays above

CN1C(=O)N(C)C2(CCN(CC(CC3OCCO3)c3ccc(F)cc3)CC2)C1=O (centres undefined)
not listed: HCC-2998 colon | KM12 colon | SW-620 colon
> 100 µM: all other assays above
